Data published in paper PMC5837813 (Bioorganic & medicinal chemistry letters, 2018).

Experiments:
FAAH [1] = molecular target: T1, FAAH (Homo sapiens, UniProt O00519); conditions: pre-incubated with FAAH at various time intervals, [S]final = 5 µM
T1 sequence (O00519 1-579): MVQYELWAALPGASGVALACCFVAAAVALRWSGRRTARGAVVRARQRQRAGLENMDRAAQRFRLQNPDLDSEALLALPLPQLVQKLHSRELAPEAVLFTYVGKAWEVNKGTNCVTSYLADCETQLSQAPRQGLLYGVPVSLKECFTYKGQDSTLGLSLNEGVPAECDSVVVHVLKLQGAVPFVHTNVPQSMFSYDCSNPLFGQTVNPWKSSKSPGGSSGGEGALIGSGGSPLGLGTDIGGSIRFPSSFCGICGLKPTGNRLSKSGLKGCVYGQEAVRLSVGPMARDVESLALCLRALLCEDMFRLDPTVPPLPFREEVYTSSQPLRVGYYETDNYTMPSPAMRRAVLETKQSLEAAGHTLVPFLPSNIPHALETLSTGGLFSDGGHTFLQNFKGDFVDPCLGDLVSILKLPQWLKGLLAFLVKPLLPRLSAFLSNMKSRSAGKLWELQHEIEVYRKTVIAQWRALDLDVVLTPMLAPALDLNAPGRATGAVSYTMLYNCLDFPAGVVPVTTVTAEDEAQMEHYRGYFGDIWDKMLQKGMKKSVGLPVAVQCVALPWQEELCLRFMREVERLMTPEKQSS

FAAH [2] = test: block of activity in brain microsomes of the different species tested
FAAH [3] = molecular target: T1, FAAH; test: biochemical
human sEH = molecular target: T2, human sEH (Homo sapiens, UniProt P34913); test: recombinant human sEH inhibition, fluorescent-based substrate; format: biochemical
T2 sequence (P34913 1-555): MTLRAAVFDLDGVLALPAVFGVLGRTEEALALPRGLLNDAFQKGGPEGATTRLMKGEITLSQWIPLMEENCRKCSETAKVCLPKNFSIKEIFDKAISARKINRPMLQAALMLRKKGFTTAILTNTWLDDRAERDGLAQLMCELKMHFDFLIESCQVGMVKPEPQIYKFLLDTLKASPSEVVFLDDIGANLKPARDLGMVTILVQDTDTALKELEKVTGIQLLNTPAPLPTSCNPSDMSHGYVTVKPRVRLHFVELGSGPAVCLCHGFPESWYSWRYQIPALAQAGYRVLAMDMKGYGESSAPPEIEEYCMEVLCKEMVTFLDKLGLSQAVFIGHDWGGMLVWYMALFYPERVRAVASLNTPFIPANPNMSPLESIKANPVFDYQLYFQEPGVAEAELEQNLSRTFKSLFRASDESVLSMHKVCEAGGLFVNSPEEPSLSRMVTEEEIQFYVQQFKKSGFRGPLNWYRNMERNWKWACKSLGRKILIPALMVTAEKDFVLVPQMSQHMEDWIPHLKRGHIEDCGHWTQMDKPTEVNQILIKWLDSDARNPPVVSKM

Row | SMILES | change of FAAH potency with pre-incubation time (in words) (FAAH [1]) | activity blocked in the microsomes (FAAH [2]) | IC50 (FAAH [3]) | IC50 (human sEH)
1 | NC(=O)c1cccc(-c2cccc(OC(=O)NC3CCCCC3)c2)c1 [URB597, 3'-carbamoyl-[1-1'-biphenyl]-3-yl cyclohexylcarbamate] | time dependent | – | – | –
2 | O=C(Nc1cccnc1)N1CCC(Cc2cccc(Oc3ccc(C(F)(F)F)cn3)c2)CC1 [PF-3845, N-(pyridin-3-yl)-4-(3-((5-(trifluoromethyl)pyridin-2-yl)oxy)benzyl)piperidine-1-carboxamide] | – | > 80% | 0.6 nM | > 10000 nM
